# Activity calls are given as the source filed them. The calls are words filed in the database; no cut-off is given here.
# What was measured:
# MIA PaCa-2 = experiment: Cytotoxicity against human MIA PaCa-2 cells assessed as reduction in cell viability by MTT assay; type: functional, cell-based
# Bacillus subtilis = experiment: Antimicrobial activity against Bacillus subtilis at 20 microg/disk by disc diffusion assay; type: functional, organism-based; settings: dose 20.0 µg/disk
# Salmonella typhimurium = experiment: Antimicrobial activity against Salmonella enterica serovar Typhimurium UK-1 x8956 at 20 microg/disk by disc diffusion assay; type: functional, organism-based; settings: Salmonella enterica subsp. enterica serovar Typhimurium, dose 20.0 µg/disk
# Fusarium graminearum = experiment: Antimicrobial activity against Fusarium graminearum at 50 microg/disk by disc diffusion assay; type: functional, organism-based; settings: dose 50.0 µg/disk
# Pythium aphanidermatum = experiment: Antimicrobial activity against Pythium aphanidermatum at 50 microg/disk by disc diffusion assay; type: functional, organism-based; settings: dose 50.0 µg/disk
# Staphylococcus aureus = experiment: Antimicrobial activity against Staphylococcus aureus ATCC 25923 at 20 microg/disk by disc diffusion assay; type: functional, organism-based; settings: dose 20.0 µg/disk
# Streptomyces sp. = experiment: Antimicrobial activity against Streptomyces sp. S001 at 20 microg/disk by disc diffusion assay; type: functional, organism-based; settings: dose 20.0 µg/disk
# Xanthomonas oryzae = experiment: Antimicrobial activity against Xanthomonas oryzae pv. oryzicola RS105 at 20 microg/disk by disc diffusion assay; type: functional; settings: dose 20.0 µg/disk
# A549 = experiment: Cytotoxicity against human A549 cells assessed as reduction in cell viability by MTT assay; type: functional, cell-based
Structure (SMILES),IC50 (MIA PaCa-2) [µM],Activity (Bacillus subtilis),Activity (Salmonella typhimurium),Activity (Fusarium graminearum),Activity (Pythium aphanidermatum),Activity (Staphylococcus aureus),Activity (Streptomyces sp.),Activity (Xanthomonas oryzae),IC50 (A549) [µM]
COc1cccc2c1C(=O)c1c(O)c3c(c(O)c1C2=O)C[C@@](O)(C(=O)CO)C[C@@H]3O[C@H]1C[C@H](N)[C@H](O)[C@H](C)O1 [DOXORUBICIN],0.43,,,,,,,,
C[C@@H]1C[C@H]2[C@@H](C=C[C@@H]3[C@H]4C/C=C\C(=O)NCC[C@H](O)[C@@H]5NC(=O)C(=C5O)C(=O)/C=C/[C@@H]4C[C@@H]32)[C@@H]1C(=O)CO,,inactive,inactive,inactive,inactive,inactive,inactive,inactive,
CC[C@H]1[C@@H]2C=C[C@H](/C=C/C=C/C(N)=O)[C@H](/C=C/C=C/C(=O)C3=C(O)[C@H](CCC(=O)O)NC3=O)[C@H]2C[C@H]1C,,inactive,inactive,inactive,inactive,inactive,inactive,inactive,
CC(=O)[C@H]1[C@@H]2C=C[C@@H]3/C=C/C=C/C(=O)NCCC[C@@H]4NC(=O)C(=C4O)C(=O)/C=C/C=C/[C@@H]3[C@H]2C[C@H]1C,,inactive,inactive,inactive,inactive,inactive,inactive,inactive,
CC(=O)[C@H]1[C@@H]2C=C[C@@H]3[C@H]4C/C=C\C(=O)NCC[C@H](O)[C@@H]5NC(=O)C(=C5O)C(=O)/C=C/[C@@H]4C[C@@H]3[C@H]2C[C@H]1C,1,inactive,inactive,inactive,inactive,inactive,inactive,inactive,0.53
CC(=O)[C@H]1[C@@H]2C=C[C@@H]3/C=C/C=C/C(=O)NCC[C@H](O)[C@@H]4NC(=O)C(=C4O)C(=O)/C=C/C=C/[C@@H]3[C@H]2C[C@H]1C,,inactive,inactive,inactive,inactive,inactive,inactive,inactive,
CC(O)[C@H]1[C@@H]2C=C[C@@H]3/C=C/C=C/C(=O)NCC[C@H](O)[C@@H]4NC(=O)C(=C4O)C(=O)/C=C/C=C/[C@@H]3[C@H]2C[C@H]1C (some centres undefined),,inactive,inactive,inactive,inactive,inactive,inactive,inactive,
CC(=O)[C@H]1[C@@H]2C=C[C@@H]3[C@@H](C/C=C\C(N)=O)[C@H](/C=C/C(=O)C4=C(O)[C@H](CCC(=O)O)NC4=O)C[C@@H]3[C@H]2C[C@H]1C,,inactive,inactive,inactive,inactive,inactive,inactive,inactive,
CC(=O)[C@H]1[C@@H]2C=C[C@H](/C=C/C=C/C(N)=O)[C@H](/C=C/C=C/C(=O)C3=C(O)[C@H](CCC(=O)O)NC3=O)[C@H]2C[C@H]1C,9.6,inactive,inactive,inactive,inactive,inactive,inactive,inactive,
CC(=O)[C@H]1[C@@H]2C=C[C@@H]3[C@H]4C/C=C\C(=O)NCCC[C@@H]5NC(=O)C(=C5O)C(=O)/C=C/[C@@H]4C[C@@H]3[C@H]2C[C@H]1C,2.4,inactive,inactive,inactive,inactive,inactive,inactive,inactive,1.4
